In ChEMBL document CHEMBL1909046, “DrugMatrix in vitro pharmacology data”:

Assays:
[1] = biological target: T1, Alpha-1A adrenergic receptor (Rattus norvegicus, UniProt P43140); experiment: DRUGMATRIX: Alpha-1A adrenergic receptor radioligand binding (ligand: prazosin); type: cell membranes, Wistar, Submaxillary gland, Membrane; conditions: Not Active = under 50% inhibition at 10 µM
T1 sequence (P43140 whole entry): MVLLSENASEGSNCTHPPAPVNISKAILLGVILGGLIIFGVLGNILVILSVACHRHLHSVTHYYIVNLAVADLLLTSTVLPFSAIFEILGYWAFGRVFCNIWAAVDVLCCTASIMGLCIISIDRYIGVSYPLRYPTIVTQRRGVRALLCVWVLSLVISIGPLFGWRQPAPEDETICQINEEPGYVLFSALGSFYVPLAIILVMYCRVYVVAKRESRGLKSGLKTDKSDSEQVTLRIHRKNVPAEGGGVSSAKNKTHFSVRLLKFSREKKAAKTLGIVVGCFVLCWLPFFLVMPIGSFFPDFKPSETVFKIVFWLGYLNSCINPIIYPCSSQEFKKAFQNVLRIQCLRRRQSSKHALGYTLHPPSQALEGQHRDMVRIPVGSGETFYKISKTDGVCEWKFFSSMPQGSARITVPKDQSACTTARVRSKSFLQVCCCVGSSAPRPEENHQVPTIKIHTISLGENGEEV

[2] = biological target: T2, Vasoactive intestinal polypeptide receptor 1 (Homo sapiens, UniProt P32241); type: cell membranes, Membrane; conditions: ht-29; also: in other assays of this panel Not Active means under 50% inhibition at 10 µM
T2 sequence (P32241 whole entry): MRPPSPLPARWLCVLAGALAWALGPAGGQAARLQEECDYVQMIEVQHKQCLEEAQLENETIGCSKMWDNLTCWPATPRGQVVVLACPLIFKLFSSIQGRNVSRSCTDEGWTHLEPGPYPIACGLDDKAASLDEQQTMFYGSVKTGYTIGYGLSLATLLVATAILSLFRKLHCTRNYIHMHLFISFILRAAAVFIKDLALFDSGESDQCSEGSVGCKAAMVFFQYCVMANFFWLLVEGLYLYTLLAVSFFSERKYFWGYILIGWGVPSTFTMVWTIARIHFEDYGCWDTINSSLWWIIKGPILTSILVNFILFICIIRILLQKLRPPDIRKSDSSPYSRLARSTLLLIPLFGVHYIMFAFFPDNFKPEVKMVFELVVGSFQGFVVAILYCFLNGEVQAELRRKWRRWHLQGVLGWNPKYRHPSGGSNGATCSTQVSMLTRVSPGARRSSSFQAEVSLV

[3] = biological target: T3, Neuropeptide Y receptor type 2 (Homo sapiens, UniProt P49146); type: cell membranes, Membrane; conditions: kan-ts; also: in other assays of this panel Not Active means under 50% inhibition at 10 µM
T3 sequence (P49146 whole entry): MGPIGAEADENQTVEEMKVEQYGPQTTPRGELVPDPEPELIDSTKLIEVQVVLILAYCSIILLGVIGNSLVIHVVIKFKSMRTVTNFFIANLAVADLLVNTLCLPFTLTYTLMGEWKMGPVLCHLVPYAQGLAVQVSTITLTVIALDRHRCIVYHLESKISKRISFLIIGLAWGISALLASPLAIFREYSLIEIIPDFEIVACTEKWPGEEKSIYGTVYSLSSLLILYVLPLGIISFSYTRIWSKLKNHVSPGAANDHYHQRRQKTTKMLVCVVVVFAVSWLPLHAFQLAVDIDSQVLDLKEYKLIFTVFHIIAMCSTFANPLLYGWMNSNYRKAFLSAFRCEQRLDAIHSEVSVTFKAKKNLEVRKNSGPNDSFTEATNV

[4] = biological target: Vascular endothelial growth factor receptor 1 (Homo sapiens, UniProt P17948); type: cell-based; conditions: huvec; also: in other assays of this panel Not Active means under 50% inhibition at 10 µM
Sequence of Vascular endothelial growth factor receptor 1 (P17948 whole entry): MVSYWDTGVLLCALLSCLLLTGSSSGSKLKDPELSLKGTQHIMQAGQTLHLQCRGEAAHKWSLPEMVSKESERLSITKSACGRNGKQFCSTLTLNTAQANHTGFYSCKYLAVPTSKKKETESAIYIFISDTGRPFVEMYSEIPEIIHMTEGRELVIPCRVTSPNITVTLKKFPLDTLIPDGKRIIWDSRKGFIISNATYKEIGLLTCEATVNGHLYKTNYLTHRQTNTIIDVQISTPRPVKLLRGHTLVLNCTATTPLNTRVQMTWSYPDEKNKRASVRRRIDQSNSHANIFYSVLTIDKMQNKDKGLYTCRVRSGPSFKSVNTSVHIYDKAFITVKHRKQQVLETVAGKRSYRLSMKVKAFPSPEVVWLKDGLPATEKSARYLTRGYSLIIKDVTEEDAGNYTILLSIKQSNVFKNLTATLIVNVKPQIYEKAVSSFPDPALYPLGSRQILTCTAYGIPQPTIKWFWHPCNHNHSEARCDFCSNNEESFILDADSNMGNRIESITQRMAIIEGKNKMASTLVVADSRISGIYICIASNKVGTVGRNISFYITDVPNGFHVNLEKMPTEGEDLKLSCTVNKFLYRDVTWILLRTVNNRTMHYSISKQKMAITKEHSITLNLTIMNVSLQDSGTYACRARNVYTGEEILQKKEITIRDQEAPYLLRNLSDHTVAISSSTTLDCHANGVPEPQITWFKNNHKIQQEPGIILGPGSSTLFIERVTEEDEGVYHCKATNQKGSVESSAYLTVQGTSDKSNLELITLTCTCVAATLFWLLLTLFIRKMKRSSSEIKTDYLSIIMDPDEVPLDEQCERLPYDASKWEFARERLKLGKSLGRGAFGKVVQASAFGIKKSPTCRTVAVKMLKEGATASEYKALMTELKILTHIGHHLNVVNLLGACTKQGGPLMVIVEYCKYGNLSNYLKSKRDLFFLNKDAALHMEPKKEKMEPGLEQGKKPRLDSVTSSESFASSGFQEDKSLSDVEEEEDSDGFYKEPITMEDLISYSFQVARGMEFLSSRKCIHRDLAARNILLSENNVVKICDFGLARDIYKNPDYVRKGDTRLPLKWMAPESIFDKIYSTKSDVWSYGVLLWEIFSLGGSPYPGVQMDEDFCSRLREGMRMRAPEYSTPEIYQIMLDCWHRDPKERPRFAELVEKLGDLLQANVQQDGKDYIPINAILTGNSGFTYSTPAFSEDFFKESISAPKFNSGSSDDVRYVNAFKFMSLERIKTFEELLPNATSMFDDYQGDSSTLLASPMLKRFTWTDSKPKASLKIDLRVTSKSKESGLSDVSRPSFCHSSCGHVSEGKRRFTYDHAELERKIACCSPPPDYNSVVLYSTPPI

[5] = biological target: Delta-type opioid receptor (Homo sapiens, UniProt P41143); type: cell membranes, HEK293, Membrane; conditions: hek293; also: in other assays of this panel Not Active means under 50% inhibition at 10 µM
Sequence of Delta-type opioid receptor (P41143 whole entry): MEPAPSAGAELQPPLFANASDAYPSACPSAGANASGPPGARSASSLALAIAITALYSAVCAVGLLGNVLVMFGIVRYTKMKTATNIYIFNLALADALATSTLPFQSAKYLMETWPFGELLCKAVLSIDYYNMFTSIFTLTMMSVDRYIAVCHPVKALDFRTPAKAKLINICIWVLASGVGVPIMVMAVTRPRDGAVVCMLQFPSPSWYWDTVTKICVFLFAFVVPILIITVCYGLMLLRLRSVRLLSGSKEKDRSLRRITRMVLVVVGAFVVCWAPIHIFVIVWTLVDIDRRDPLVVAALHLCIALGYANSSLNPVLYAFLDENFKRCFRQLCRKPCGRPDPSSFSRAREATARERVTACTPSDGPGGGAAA

[6] = biological target: T4, Type-2 angiotensin II receptor (Homo sapiens, UniProt P50052); type: cell-based; conditions: cho-k1; also: in other assays of this panel Not Active means under 50% inhibition at 10 µM
T4 sequence (P50052 whole entry): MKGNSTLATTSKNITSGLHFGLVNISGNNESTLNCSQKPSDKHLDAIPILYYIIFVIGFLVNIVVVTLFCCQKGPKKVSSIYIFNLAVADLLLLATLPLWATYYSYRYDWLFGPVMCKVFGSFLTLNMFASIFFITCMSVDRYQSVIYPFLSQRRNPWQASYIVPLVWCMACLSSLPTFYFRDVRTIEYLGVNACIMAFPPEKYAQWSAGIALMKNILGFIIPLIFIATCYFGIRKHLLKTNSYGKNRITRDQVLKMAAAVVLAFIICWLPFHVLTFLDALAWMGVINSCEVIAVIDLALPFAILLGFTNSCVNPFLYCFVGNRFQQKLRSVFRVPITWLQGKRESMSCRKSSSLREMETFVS

[7] = biological target: Carbonic anhydrase 2 (Homo sapiens, UniProt P00918); experiment: DRUGMATRIX: Carbonic Anhydrase II enzyme inhibition (substrate: 4-Nitrophenyl acetate (4-NPA)); type: tissue-based, Erythrocyte; conditions: erythrocyte; Not Active = under 50% inhibition at 10 µM
[8] = biological target: T5, Cytochrome P450 1A2 (Homo sapiens, UniProt P05177); conditions: bti-tn-5b1-4; also: in other assays of this panel Not Active means under 50% inhibition at 10 µM
T5 sequence (P05177 whole entry): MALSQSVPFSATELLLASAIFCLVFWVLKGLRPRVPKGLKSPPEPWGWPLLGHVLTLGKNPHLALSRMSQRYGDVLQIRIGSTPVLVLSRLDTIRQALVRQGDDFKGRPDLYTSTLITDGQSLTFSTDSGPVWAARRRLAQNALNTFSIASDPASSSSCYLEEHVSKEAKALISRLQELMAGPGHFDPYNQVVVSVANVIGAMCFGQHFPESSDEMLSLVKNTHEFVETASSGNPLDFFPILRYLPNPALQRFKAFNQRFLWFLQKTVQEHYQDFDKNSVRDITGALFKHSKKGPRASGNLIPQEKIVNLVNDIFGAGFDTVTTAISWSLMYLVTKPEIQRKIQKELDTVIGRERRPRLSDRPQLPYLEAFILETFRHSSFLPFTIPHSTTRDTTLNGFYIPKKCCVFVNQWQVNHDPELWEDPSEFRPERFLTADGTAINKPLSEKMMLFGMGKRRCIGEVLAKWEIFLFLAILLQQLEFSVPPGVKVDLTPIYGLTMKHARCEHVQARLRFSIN

CO[C@H]1O[C@@H]2O[C@@]3(C)CC[C@H]4[C@H](C)CC[C@@H]([C@H]1C)[C@@]24OO3
Not Active: IC50 [1] | IC50 [2] | IC50 [3] | IC50 [4] | IC50 [5] | IC50 [6] | IC50 [7] | IC50 [8] | Ki [8]

C[C@@H]1[C@H](O)[C@@H](C)/C=C/C=C/C=C/C=C/C=C/C=C/C=C/[C@H](O[C@@H]2O[C@H](C)[C@@H](O)[C@H](N)[C@@H]2O)C[C@@H]2O[C@](O)(C[C@@H](O)C[C@@H](O)[C@H](O)CC[C@@H](O)C[C@@H](O)CC(=O)O[C@H]1C)C[C@H](O)[C@H]2C(=O)O [AMPHOTERICIN B]
Not Active: IC50 [1] | IC50 [2] | IC50 [3] | IC50 [4] | IC50 [5] | IC50 [6] | IC50 [7] | IC50 [8] | Ki [8]

Oc1ncnc2[nH]ncc12 [ALLOPURINOL]
Not Active: IC50 [1] | IC50 [2] | IC50 [3] | IC50 [4] | IC50 [5] | IC50 [6] | IC50 [7] | IC50 [8] | Ki [8]

COc1cc([C@@H]2c3cc4c(cc3[C@H](O)[C@H]3COC(=O)[C@H]23)OCO4)cc(OC)c1OC [PODOFILOX]
Not Active: IC50 [1] | IC50 [2] | IC50 [3] | IC50 [4] | IC50 [5] | IC50 [6] | IC50 [7] | IC50 [8] | Ki [8]

NC(=O)CN1CCCC1=O
Not Active: IC50 [1] | IC50 [2] | IC50 [3] | IC50 [4] | IC50 [5] | IC50 [6] | IC50 [7] | IC50 [8] | Ki [8]

POVIDONE
Not Active: IC50 [1] | Ki [1] | IC50 [2] | Ki [2] | IC50 [3] | Ki [3] | IC50 [4] | Ki [4] | IC50 [5] | Ki [5] | IC50 [6] | Ki [6] | IC50 [7] | Ki [7] | IC50 [8] | Ki [8]

Cc1c(N)nc([C@H](CC(N)=O)NC[C@H](N)C(N)=O)nc1C(=O)N[C@H](C(=O)N[C@H](C)[C@@H](O)[C@H](C)C(=O)N[C@H](C(=O)NCCc1nc(-c2nc(C(=O)NCCC[S+](C)C)cs2)cs1)[C@@H](C)O)[C@@H](O[C@@H]1O[C@@H](CO)[C@@H](O)[C@H](O)[C@@H]1O[C@H]1O[C@H](CO)[C@@H](O)[C@H](OC(N)=O)[C@@H]1O)c1c[nH]cn1.[Br-] [BLEOMYCIN A2]
Not Active: IC50 [1] | IC50 [2] | IC50 [3] | IC50 [4] | IC50 [5] | IC50 [6] | IC50 [7] | IC50 [8] | Ki [8]

CN(Cc1cc(Br)cc(Br)c1N)C1CCCCC1 [BROMHEXINE]
Not Active: IC50 [1] | IC50 [2] | IC50 [3] | IC50 [4] | IC50 [5] | IC50 [6] | IC50 [7] | IC50 [8] | Ki [8]

Nc1ccc(Cc2ccc(N)cc2)cc1
Not Active: IC50 [1] | IC50 [2] | IC50 [3] | IC50 [4] | IC50 [5] | IC50 [6] | IC50 [7] | IC50 [8] | Ki [8]
